The subject of series [1] is influenza A/H1N1/WSN/33 virus. Briefly: Anti-IAV activity assay. The series is classed as cell-based. As to conditions: 24 h, read-out: IC50 (anti-IAV activity).
The next series in a line: in vitro. As to conditions: human.

pIC50: −log10 of the molar value.

As to `Cc1cc(=O)c2c(o1)C[C@H](O)C[C@H]2O` [Compound 9, (5R,7R)-5,7-dihydroxy-2-methyl-5,6,7,8-tetrahydro-4H-chromen-4-one], in series [1], the pIC50 is 4.79. In the series “in vitro”, this molecule gave a CC50 above 100 µM.
The corresponding values for `Cc1cc(=O)c2c(o1)C[C@@H](O)C[C@H]2O` [Compound 11, (5R,7S)-5,7-dihydroxy-2-methyl-5,6,7,8-tetrahydro-4H-chromen-4-one] are 5.05 and above 100 µM.
For `NC(=O)c1ncn([C@@H]2O[C@H](CO)[C@@H](O)[C@H]2O)n1` [Ribavirin, reference compound], in that order: 4.66 and above 100 µM.

As a reminder, the pIC50 is the IC50 on a negative log10 scale, so that one unit is a factor of ten.

Values taken from paper PMC9034232 (RSC Advances, 2021).
